Results taken from patent US9056876B2, “Substituted 1H-pyrazolo[3′,4′,4,5]thieno[2,3-b]pyridin-3-amine analogs as positive allosteric modulators of the muscarinic acetylcholine receptor M4” (VANDERBILT UNIVERSITY, priority 2011, dated 2015).

Biological target: T1, mAChR M4 (UniProt P08173)
T1 construct: hM1 and hM4 cDNAs were purchased from Missouri S&T cDNA Resource
T1 sequence (P08173 1-479): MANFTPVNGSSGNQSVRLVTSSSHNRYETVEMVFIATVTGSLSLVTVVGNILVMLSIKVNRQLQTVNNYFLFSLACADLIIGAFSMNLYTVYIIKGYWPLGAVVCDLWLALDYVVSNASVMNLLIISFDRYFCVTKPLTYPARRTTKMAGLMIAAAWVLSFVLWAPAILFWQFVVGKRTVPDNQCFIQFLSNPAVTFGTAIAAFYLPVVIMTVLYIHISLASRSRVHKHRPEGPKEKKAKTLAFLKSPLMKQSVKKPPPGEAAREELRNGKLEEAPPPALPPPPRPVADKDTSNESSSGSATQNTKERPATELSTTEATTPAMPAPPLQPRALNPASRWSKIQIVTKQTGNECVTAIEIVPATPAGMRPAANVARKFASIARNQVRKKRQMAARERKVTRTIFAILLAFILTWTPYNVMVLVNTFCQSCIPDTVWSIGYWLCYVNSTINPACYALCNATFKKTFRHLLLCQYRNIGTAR
Assay: mAChR M4 cell-based functional assay (calcium mobilization, Fluo-4, FDSS)
Settings: for Emax (%)*: % ACh maximum at 30 μM; for pEC50: positive allosteric modulator activity, EC20 acetylcholine response; for pEC50 / EC50: CHO-K1 cells; for EC50: positive allosteric modulator activity: concentration-dependent increase in the EC20 acetylcholine response, >10 μM estimated for low potency (no plateau)
Outline: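 CHO-K1 cells stably expressing hM4 or rM4 with chimeric Gqi5, loaded with Fluo-4 AM for 50 min at 37° C. Calcium read on FDSS 6000 over 300 s: compound added at 4 s, acetylcholine EC20 at 144 s and EC80 at 230 s. Agonist, PAM (EC20 increase) and antagonist (EC80 decrease) values fitted by four-parameter logistic.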

Compound	Emax (%)* [%]	pEC50	EC50 [µM]
Cc1cc(C)c2c(n1)sc1c(NC3CCCCCC3)n[nH]c12 [Compound 133, N-cycloheptyl-6,8-dimethyl-1H-pyrazolo[3′,4′:4,5]thieno[2,3-b]pyridin-3-amine]		<5.00	> 10
Cc1cc(C)c2c(n1)sc1c(NC3CCN(C)CC3)n[nH]c12 [Compound 134, 6,8-dimethyl-N-(1-methylpiperidin-4-yl)-1H-pyrazolo[3′,4′:4,5]thieno[2,3-b]pyridin-3-amine]		<5.00	> 10
Cc1cc(C)c2c(n1)sc1c(NC3CCCN(C(=O)OC(C)(C)C)C3)n[nH]c12 (centres unmarked) [Compound 135, tert-butyl 3-((6,8-dimethyl-1H-pyrazolo[3′,4′:4,5]thieno[2,3-b]pyridin-3-yl)amino)piperidine-1-carboxylate]		<5.00	> 10
Cc1cc(C)c2c(n1)sc1c(NC3CCCNC3)n[nH]c12 (centres unmarked) [Compound 136, 6,8-dimethyl-N-(piperidin-3-yl)-1H-pyrazolo[3′,4′:4,5]thieno[2,3-b]pyridin-3-amine]		<5.00	> 10
Cc1cc(C)c2c(n1)sc1c(NC3CCC(C(F)(F)F)CC3)n[nH]c12 (centres unmarked) [Compound 137, 6,8-dimethyl-N-(4-(trifluoromethyl)cyclohexyl)-1H-pyrazolo[3′,4′:4,5]thieno[2,3-b]pyridin-3-amine]		<5.00	> 10
Cc1cc(C)c2c(n1)sc1c(NC3CCC(N)CC3)n[nH]c12 (centres unmarked) [Compound 138, N1-(6,8-dimethyl-1H-pyrazolo[3′,4′:4,5]thieno[2,3-b]pyridin-3-yl)cyclohexane-1,4-diamine]		<5.00	> 10
Cc1cc(C)c2c(n1)sc1c(NC3CCC(NC(=O)OC(C)(C)C)CC3)n[nH]c12 (centres unmarked) [Compound 139, tert-butyl (4-((6,8-dimethyl-1H-pyrazolo[3′,4′:4,5]thieno[2,3-b]pyridin-3-yl)amino)cyclohexyl)carbamate]		<5.00	> 10
Cc1nc2sc3c(NCCC(C)C)n[nH]c3c2c(C)c1Cl [Compound 140, 7-chloro-N-isopentyl-6,8-dimethyl-1H-pyrazolo[3′,4′:4,5]thieno[2,3-b]pyridin-3-amine]		<5.00	> 10
Cc1nc2sc3c(N)n[nH]c3c2c(C)c1Cl [Compound 141, 7-chloro-6,8-dimethyl-1H-pyrazolo[3′,4′:4,5]thieno[2,3-b]pyridin-3-amine]		<5.00	> 10
Cc1nc2sc3c(NCC4CCCCC4)n[nH]c3c2c(C)c1Cl [Compound 142, 7-chloro-N-(cyclohexylmethyl)-6,8-dimethyl-1H-pyrazolo[3′,4′:4,5]thieno[2,3-b]pyridin-3-amine]		<5.00	> 10
COc1ccc(CNc2n[nH]c3c2sc2nc(C)c(Cl)c(C)c23)cc1 [Compound 143, 7-chloro-N-(4-methoxybenzyl)-6,8-dimethyl-1H-pyrazolo[3′,4′:4,5]thieno[2,3-b]pyridin-3-amine]		<5.00	> 10
Cc1cc(C)cc(CNc2n[nH]c3c2sc2nc(C)c(Cl)c(C)c23)c1 [Compound 144, 7-chloro-N-(3,5-dimethylbenzyl)-6,8-dimethyl-1H-pyrazolo[3′,4′:4,5]thieno[2,3-b]pyridin-3-amine]		<5.00	> 10
Cc1nc2sc3c(NCc4ccc(F)cc4)n[nH]c3c2c(C)c1Cl [Compound 145, 7-chloro-N-(4-fluorobenzyl)-6,8-dimethyl-1H-pyrazolo[3′,4′:4,5]thieno[2,3-b]pyridin-3-amine]		<5.00	> 10

Second part, the compound after the results:

Emax (%)* [%]	pEC50	EC50 [µM]	Compound
69	5.72	1.9	Cc1cc(C)c2c(n1)sc1c(NC3CCOCC3)nn(CCO)c12 [Compound 115, 2-(6,8-dimethyl-3-((tetrahydro-2H-pyran-4-yl)amino)-1H-pyrazolo[3′,4′:4,5]thieno[2,3-b]pyridin-1-yl)ethanol]
73	7.24	0.057	Cc1cc(C)c2c(n1)sc1c(NCc3ccc(S(C)(=O)=O)cc3)nn(CCO)c12 [Compound 116, 2-(6,8-dimethyl-3-((4-(methylsulfonyl)benzyl)amino)-1H-pyrazolo[3′,4′:4,5]thieno[2,3-b]pyridin-1-yl)ethanol]
40	<5.00	> 10	COC(=O)Cn1nc(NCc2ccc(S(C)(=O)=O)cc2)c2sc3nc(C)cc(C)c3c21 [Compound 117, methyl 2-(6,8-dimethyl-3-((4-(methylsulfonyl)benzyl)amino)-1H-pyrazolo[3′,4′:4,5]thieno[2,3-b]pyridin-1-yl)acetate]
60	<5.00	> 10	COCCn1nc(NCc2ccc(OC)cc2)c2sc3nc(C)cc(C)c3c21 [Compound 118, N-(4-methoxybenzyl)-1-(2-methoxyethyl)-6,8-dimethyl-1H-pyrazolo[3′,4′:4,5]thieno[2,3-b]pyridin-3-amine]
65	5.92	1.2	COCCn1nc(NCc2ccc(S(C)(=O)=O)cc2)c2sc3nc(C)cc(C)c3c21 [Compound 119, 1-(2-methoxyethyl)-6,8-dimethyl-N-(4-(methylsulfonyl)benzyl)-1H-pyrazolo[3′,4′:4,5]thieno[2,3-b]pyridin-3-amine]
59	<5.00	> 10	CCCn1nc(NCc2ccc(S(C)(=O)=O)cc2)c2sc3nc(C)cc(C)c3c21 [Compound 120, 6,8-dimethyl-N-(4-(methylsulfonyl)benzyl)-1-propyl-1H-pyrazolo[3′,4′:4,5]thieno[2,3-b]pyridin-3-amine]
41	6.00	0.99	CC(=O)N1CCC(CNc2nn(C)c3c2sc2nc(C)cc(C)c23)CC1 [Compound 121, 1-(4-(((1,6,8-trimethyl-1H-pyrazolo[3′,4′:4,5]thieno[2,3-b]pyridin-3-yl)amino)methyl)piperidin-1-yl)ethanone]
27	<5.00	> 10	Cc1cc(C)c2c(n1)sc1c(NCC3CCN(C(=O)OC(C)(C)C)CC3)nn(C)c12 [Compound 122, tert-butyl 4-(((1,6,8-trimethyl-1H-pyrazolo[3′,4′:4,5]thieno[2,3-b]pyridin-3-yl)amino)methyl)piperidine-1-carboxylate]
30	<5.00	> 10	Cc1cc(C)c2c(n1)sc1c(NCC3CCNCC3)nn(C)c12 [Compound 123, 1,6,8-trimethyl-N-(piperidin-4-ylmethyl)-1H-pyrazolo[3′,4′:4,5]thieno[2,3-b]pyridin-3-amine]
	<5.00	> 10	Cc1cc(C)c2c(n1)sc1c(NCCC(C)(C)C)n[nH]c12 [Compound 124, N-(3,3-dimethylbutyl)-6,8-dimethyl-1H-pyrazolo[3′,4′:4,5]thieno[2,3-b]pyridin-3-amine]
	<5.00	> 10	Cc1cc(C)c2c(n1)sc1c(N)nn(C(=O)OC(C)(C)C)c12 [Compound 125, tert-butyl 3-amino-6,8-dimethyl-1H-pyrazolo[3′,4′:4,5]thieno[2,3-b]pyridine-1-carboxylate]
	<5.00	> 10	CC(=O)Nc1n[nH]c2c1sc1nc(C)cc(C)c12 [Compound 126, N-(6,8-dimethyl-1H-pyrazolo[3′,4′:4,5]thieno[2,3-b]pyridin-3-yl)acetamide]
	<5.00	> 10	COc1cccc(C(=O)Nc2n[nH]c3c2sc2nc(C)cc(C)c23)c1 [Compound 127, N-(6,8-dimethyl-1H-pyrazolo[3′,4′:4,5]thieno[2,3-b]pyridin-3-yl)-3-methoxybenzamide]
	<5.00	> 10	Cc1cc(C)c2c(n1)sc1c(NC(=O)c3ccc(F)cc3)n[nH]c12 [Compound 128, N-(6,8-dimethyl-1H-pyrazolo[3′,4′:4,5]thieno[2,3-b]pyridin-3-yl)-4-fluorobenzamide]
	<5.00	> 10	CCCCC(=O)Nc1n[nH]c2c1sc1nc(C)cc(C)c12 [Compound 129, N-(6,8-dimethyl-1H-pyrazolo[3′,4′:4,5]thieno[2,3-b]pyridin-3-yl)pentanamide]
	<5.00	> 10	Cc1cc(C)c2c(n1)sc1c(NC(=O)c3ccccc3)n[nH]c12 [Compound 130, N-(6,8-dimethyl-1H-pyrazolo[3′,4′:4,5]thieno[2,3-b]pyridin-3-yl)benzamide]
	<5.00	> 10	Cc1cc(C)c2c(n1)sc1c(NC3CCN(C(C)C)CC3)n[nH]c12 [Compound 131, N-(1-isopropylpiperidin-4-yl)-6,8-dimethyl-1H-pyrazolo[3′,4′:4,5]thieno[2,3-b]pyridin-3-amine]
	<5.00	> 10	Cc1cc(C)c2c(n1)sc1c(NC3CCCCC3)n[nH]c12 [Compound 132, N-cyclohexyl-6,8-dimethyl-1H-pyrazolo[3′,4′:4,5]thieno[2,3-b]pyridin-3-amine]
